From BigSolDB 2.1

CN1CCN(C(=O)O[C@H]2c3nccnc3C(=O)N2c2ccc(Cl)cn2)CC1
solubility (mole fraction)
Details | 288.15 K | 293.15 K | 298.15 K | 303.15 K | 308.15 K | 313.15 K | 318.15 K | 323.15 K | 328.15 K
in acetone | 0.0013 | 0.0015 | 0.0019 | 0.0023 | 0.0027 | 0.0032 | 0.0037 | – | –
in ethanol | 0.0002 | 0.0003 | 0.0004 | 0.0004 | 0.0005 | 0.0007 | 0.0009 | 0.001 | 0.0012
